Test results from BindingDB's records for doi:10.1021/jm00020a029 (Merck Research Laboratories, 1995).
Where a SMILES comes first, the peptide text is derived from it. [ ]: non-standard residue; d: D form. Phe(F5) = N[C@@H](Cc1c(F)c(F)c(F)c(F)c1F)C(=O)O; Phe(4-CH2NH2) = NCc1ccc(C[C@H](N)C(=O)O)cc1; Phe(4-NH2) = Nc1ccc(C[C@H](N)C(=O)O)cc1; Phe(4-F) = N[C@@H](Cc1ccc(F)cc1)C(=O)O; 2Nal = N[C@@H](Cc1ccc2ccccc2c1)C(=O)O; NMeR = CN[C@@H](CCCNC(=N)N)C(=O)O; hPhe = N[C@@H](CCc1ccccc1)C(=O)O; Cha = N[C@@H](CC1CCCCC1)C(=O)O; NMeL = CN[C@@H](CC(C)C)C(=O)O

Experiment: Evaluated for the activation of human thrombin receptor measured by platelet aggregation

EC50 | SMILES
28 µM | CC(C)C[C@H](NC(=O)[C@H](CC(C)C)NC(=O)[C@H](CC1CCCCC1)NC(=O)[C@H](C)N)C(=O)N[C@@H](CCCNC(=N)N)C(N)=O [(S)-2-[(S)-2-((S)-2-Amino-propionylamino)-3-cyclohexyl-propionylamino]-4-methyl-pentanoic acid [(S)-1-((S)-1-carbamoyl-4-guanidino-butylcarbamoyl)-3-methyl-butyl]-amide] (H-A[Cha]LLR-NH2)
19 µM | CC(C)C[C@H](NC(=O)[C@H](CC(C)C)NC(=O)[C@H](Cc1ccc2ccccc2c1)NC(=O)[C@H](C)N)C(=O)N[C@@H](CCCNC(=N)N)C(N)=O [(S)-2-[(S)-2-((S)-2-Amino-propionylamino)-3-naphthalen-2-yl-propionylamino]-4-methyl-pentanoic acid [(S)-1-((S)-1-carbamoyl-4-guanidino-butylcarbamoyl)-3-methyl-butyl]-amide] (H-A[2Nal]LLR-NH2)
600 µM | CC(C)C[C@H](NC(=O)[C@H](CC(C)C)NC(=O)[C@H](Cc1c(F)c(F)c(F)c(F)c1F)NC(=O)[C@H](C)N)C(=O)N[C@@H](CCCNC(=N)N)C(N)=O [(S)-2-[(S)-2-((S)-2-Amino-propionylamino)-3-pentafluorophenyl-propionylamino]-4-methyl-pentanoic acid [(S)-1-((S)-1-carbamoyl-4-guanidino-butylcarbamoyl)-3-methyl-butyl]-amide] (H-A[Phe(F5)]LLR-NH2)
0.4 µM | CC(C)C[C@H](NC(=O)[C@H](Cc1ccccc1)NC(=O)[C@H](C)N)C(=O)N[C@@H](CC1CCCCC1)C(=O)N[C@@H](CCCNC(=N)N)C(N)=O [(S)-2-[(S)-2-((S)-2-Amino-propionylamino)-3-phenyl-propionylamino]-4-methyl-pentanoic acid [(S)-1-((S)-1-carbamoyl-4-guanidino-butylcarbamoyl)-2-cyclohexyl-ethyl]-amide] (H-AFL[Cha]R-NH2)
0.8 µM | CC(C)C[C@H](NC(=O)[C@H](CC(C)C)NC(=O)[C@H](Cc1ccccc1)NC(=O)[C@H](C)N)C(=O)N[C@@H](CCCNC(=N)N)C(N)=O [(S)-2-[(S)-2-((S)-2-Amino-propionylamino)-3-phenyl-propionylamino]-4-methyl-pentanoic acid [(S)-1-((S)-1-carbamoyl-4-guanidino-butylcarbamoyl)-3-methyl-butyl]-amide] (H-AFLLR-NH2)
260 µM | CC(C)C[C@H](NC(=O)[C@H](Cc1ccccc1)NC(=O)[C@H](C)N)C(=O)N(C)[C@@H](CC(C)C)C(=O)N[C@@H](CCCNC(=N)N)C(N)=O [(S)-2-[(S)-2-((S)-2-Amino-propionylamino)-3-phenyl-propionylamino]-4-methyl-pentanoic acid [(S)-1-((S)-1-carbamoyl-4-guanidino-butylcarbamoyl)-3-methyl-butyl]-methyl-amide] (H-AFL[NMeL]R-NH2)
> 800 µM | CC(C)C[C@H](NC(=O)[C@H](CC(C)C)NC(=O)[C@H](CCc1ccccc1)NC(=O)[C@H](C)N)C(=O)N[C@@H](CCCNC(=N)N)C(N)=O [(S)-2-[(S)-2-((S)-2-Amino-propionylamino)-4-phenyl-butyrylamino]-4-methyl-pentanoic acid [(S)-1-((S)-1-carbamoyl-4-guanidino-butylcarbamoyl)-3-methyl-butyl]-amide] (H-A[hPhe]LLR-NH2)
0.2 µM | CC(C)C[C@H](NC(=O)[C@H](CC(C)C)NC(=O)[C@H](Cc1ccccc1)NC(=O)[C@@H](N)CO)C(=O)N[C@@H](CCCNC(=N)N)C(=O)N[C@@H](CC(N)=O)C(N)=O [(S)-2-[(S)-2-((S)-2-{(S)-2-[(S)-2-((S)-2-Amino-3-hydroxy-propionylamino)-3-phenyl-propionylamino]-4-methyl-pentanoylamino}-4-methyl-pentanoylamino)-5-guanidino-pentanoylamino]-succinamide]
235 µM | CC(C)C[C@H](NC(=O)[C@H](CC(C)C)NC(=O)[C@H](Cc1ccc(N)cc1)NC(=O)[C@H](C)N)C(=O)N[C@@H](CCCNC(=N)N)C(N)=O [(S)-2-[(S)-3-(4-Amino-phenyl)-2-((S)-2-amino-propionylamino)-propionylamino]-4-methyl-pentanoic acid [(S)-1-((S)-1-carbamoyl-4-guanidino-butylcarbamoyl)-3-methyl-butyl]-amide] (H-A[Phe(4-NH2)]LLR-NH2)
800 µM | CC(C)C[C@H](NC(=O)[C@H](CC(C)C)NC(=O)[C@H](Cc1ccc(CN)cc1)NC(=O)[C@H](C)N)C(=O)N[C@@H](CCCNC(=N)N)C(N)=O [(S)-2-[(S)-3-(4-Aminomethyl-phenyl)-2-((S)-2-amino-propionylamino)-propionylamino]-4-methyl-pentanoic acid [(S)-1-((S)-1-carbamoyl-4-guanidino-butylcarbamoyl)-3-methyl-butyl]-amide] (H-A[Phe(4-CH2NH2)]LLR-NH2)
> 800 µM | CC(C)C[C@H](NC(=O)[C@H](CC(C)C)NC(=O)[C@H](Cc1ccccc1)N(C)C(=O)[C@@H](N)CO)C(=O)N[C@@H](CCCNC(=N)N)C(N)=O [(S)-2-{(S)-2-[((S)-2-Amino-3-hydroxy-propionyl)-methyl-amino]-3-phenyl-propionylamino}-4-methyl-pentanoic acid [(S)-1-((S)-1-carbamoyl-4-guanidino-butylcarbamoyl)-3-methyl-butyl]-amide]
185 µM | CC(C)C[C@H](NC(=O)[C@H](CC(C)C)NC(=O)[C@H](Cc1ccccc1)NC(=O)[C@@H](N)CO)C(N)=O [(S)-2-{(S)-2-[(S)-2-((S)-2-Amino-3-hydroxy-propionylamino)-3-phenyl-propionylamino]-4-methyl-pentanoylamino}-4-methyl-pentanoic acid amide] (H-SFLL-NH2)
1.3 µM | CC(C)C[C@H](NC(=O)[C@H](C)NC(=O)[C@H](Cc1ccccc1)NC(=O)[C@@H](N)CO)C(=O)N[C@@H](CCCNC(=N)N)C(N)=O [(S)-2-{(S)-2-[(S)-2-((S)-2-Amino-3-hydroxy-propionylamino)-3-phenyl-propionylamino]-propionylamino}-4-methyl-pentanoic acid ((S)-1-carbamoyl-4-guanidino-butyl)-amide] (H-SFALR-NH2)
0.13 µM | CC(C)C[C@H](NC(=O)[C@H](CCCNC(=N)N)NC(=O)[C@H](Cc1ccc(F)cc1)NC(=O)[C@H](C)N)C(=O)N[C@@H](CCCNC(=N)N)C(N)=O [(S)-2-{(S)-2-[(S)-2-((S)-2-Amino-propionylamino)-3-(4-fluoro-phenyl)-propionylamino]-5-guanidino-pentanoylamino}-4-methyl-pentanoic acid ((S)-1-carbamoyl-4-guanidino-butyl)-amide] (H-A[Phe(4-F)]RLR-NH2)
800 µM | CC(C)C[C@H](NC(=O)[C@H](Cc1ccccc1)NC(=O)[C@H](C)N)C(=O)N[C@@H](CC(C)C)C(=O)N(C)[C@@H](CCCNC(=N)N)C(N)=O [(S)-2-{(S)-2-[(S)-2-((S)-2-Amino-propionylamino)-3-phenyl-propionylamino]-4-methyl-pentanoylamino}-4-methyl-pentanoic acid ((S)-1-carbamoyl-4-guanidino-butyl)-methyl-amide] (H-AFLL[NMeR]-NH2)
